Laboratory results from patent publication US20090137626A1, “Pharmaceutical Composition Containing PPARgamma Agonist” (priority 2005, published 2009).
Structures can show the parent of a compound that is named as a salt.

Tested on: Male Zucker diabetic fatty (ZDF) rats
Experiment: Test Example 1: elimination of blood lactate after intravenous sodium lactate load (blood lactate AUC 0 to 60 minutes)
Assay type: in vivo
Settings: sodium lactate 0.1 g/kg i.v., FIG. 1
Experimental: The animals of Group B and Group B+A were given free access for 1 week to Compound B mixed in powdered feed (FR-2 Powdered Laboratory Rodent Diet, Funabashi Farm Co., Ltd.) to a concentration of 0.001%. Animals of the control group and Group A were given free access to powdered feed for the same time period.
All animals were administered sodium lactate at 0.1 g/kg into the caudal vein one hour after oral administration. Blood samples were collected from the caudal vein immediately before and 5, 15, 30, 45 and 60 minutes after administration of sodium lactate, and blood lactate levels were measured using the Lactate Pro LT-1710 (Arkray, Inc.). The areas under the curve for blood lactate concentration (blood lactate AUC) were calculated from blood lactate levels from 0 to 60 minutes measured for each animal. A lower blood lactate AUC value indicates a more rapid elimination of lactate from the blood.

## COc1ccc2nc(COc3ccc(CC4SC(=O)NC4=O)cc3)n(C)c2c1 (centres unmarked) [Compound B, 5-{4-[(6-methoxy-1-methyl-1H-benzimidazol-2-yl)methoxy]benzyl}thiazolidine-2,4-dione hydrochloride]
Group B+A: Compound B 0.001% in feed for 1 week, then Compound A 300 mg/kg oral, relative to Group A (P<0.05, t-test)
  blood lactate AUC: decreased significantly
Group B: Compound B 0.001% in powdered feed for 1 week, alone, compared with control group (P<0.05, t-test)
  blood lactate AUC: decreased significantly
